Data: US12612389B2, “Benzofuran-based N-acylhydrazone derivative and pharmaceutical composition comprising same” (KOREA RESEARCH INSTITUTE OF BIOSCIENCE AND BIOTECHNOLOGY, priority 2019, dated 2026)
Values belong to the molecule of their own block, whether it stands above or below them.

Legend:
K562 = test: Anti-proliferative activity test in cancer cells exhibiting multidrug resistance (MTT), parent line; type: cell-based; settings: Homo sapiens, 96 h, 4 days
Description: (§1) HeLa cells (American Type Culture Collection: ATCC, USA), a human cervical cancer cell line, were seeded in a 96-well plate at 3×10^3 cells/well, and the cells were then treated with compounds of Examples or Comparative Example according to the present invention and grown for 2 days. Then, MTT (3-(4,5-dimethylthiazol-2-yl)-2,5-diphenyltetrazolium bromide) reagent was added at 10 μL/well. […] The data shown in Table below are mean values of results obtained by repeating the analysis twice. Specifically, K562 and MCF7 (Bio Evaluation Center, Korea Research Institute of Bioscience and Biotechnology, Korea) and multidrug-resistant cell lines of each of these cell lines, i.e., K562/ADR and MCF7/ADR (Bio Evaluation Center, Korea Research Institute of Bioscience and Biotechnology, Korea), were cultured on microtiter plates (1-3×10^3 cells/well). […] The data shown in Table below are mean values of results obtained by repeating the analysis three times.

MCF7 = test: as above; type: cell-based; settings: Homo sapiens, 96 h, 4 days
Description: as §1

K562/ADR = test: Anti-proliferative activity test in cancer cells exhibiting multidrug resistance (MTT); type: cell-based; settings: for Resistance Factor: ratio IC50 K562/ADR to IC50 K562
Description: as §1

MCF7/ADR = test: as above; type: cell-based; settings: for Resistance Factor: ratio IC50 MCF7/ADR to IC50 MCF7
Description: as §1

HeLa cells = test: Anti-proliferative activity test in HeLa cell line (MTT); type: cell-based; settings: Homo sapiens, 48 h, grown for 2 days, mean of 2
Description: HeLa cells (American Type Culture Collection: ATCC, USA), a human cervical cancer cell line, were seeded in a 96-well plate at 3×10^3 cells/well, and the cells were then treated with compounds of Examples or Comparative Example according to the present invention and grown for 2 days. Then, MTT (3-(4,5-dimethylthiazol-2-yl)-2,5-diphenyltetrazolium bromide) reagent was added at 10 μL/well. After 2 hours, absorbance was measured at “OD 450” and statistical values were obtained using Prism™6 program. The data shown in Table below are mean values of results obtained by repeating the analysis twice.

Stability test in plasma [1] = type: in vitro ADME; set-up: Residue % (180 minutes elapsed), Mean: dose or concentration left out as unconfirmed; settings: 37° C.
Description: In order to test the stability (in vivo) of the Example compounds according to the present invention, the compounds of Examples 2, 3, 4, 8 and 15 were administered intravenously, and plasma concentrations over time were observed. In addition, procaine was used as a positive control. Plasma stability was measured three times by administering the test compound at a concentration […] to human, rat, or mouse plasma (90 μL) at 37° C. Results thereof are shown in Table below and FIGS. 3A to 3E.

Stability test in plasma [2] = type: in vitro ADME; settings: Rat plasma, 37° C.; for Residue % (180 minutes elapsed), Mean: 5 mM
Description: In order to test the stability (in vivo) of the Example compounds according to the present invention, the compounds of Examples 2, 3, 4, 8 and 15 were administered intravenously, and plasma concentrations over time were observed. In addition, procaine was used as a positive control. Plasma stability was measured three times by administering the test compound at a concentration of 5 mM to human, rat, or mouse plasma (90 μL) at 37° C. Results thereof are shown in Table below and FIGS. 3A to 3E.

[3] = Metabolic stability test in liver microsomes; type: in vitro ADME; settings: 0.5 mg protein/mL, 37° C.
Description: (§2) The test compounds at a concentration of […] were administered in the presence or absence of NADPH (1 mM) to liver […] (0.5 mg protein/mL) of humans, rats and mice, and metabolic stability was tested at 37° C. for 30 minutes. In addition, buspirone was used as a positive control. Results thereof are shown in Table below and FIGS. 4A to 4E.

[4] = Stability in buffer (line of the metabolic stability test); type: in vitro ADME
Description: as §2

SMILES: CC(=O)O[C@H]1C(=O)[C@@]2(C)[C@H]([C@H](OC(=O)c3ccccc3)[C@]3(O)C[C@H](OC(=O)[C@H](O)[C@@H](NC(=O)c4ccccc4)c4ccccc4)C(C)=C1C3(C)C)[C@]1(OC(C)=O)CO[C@@H]1C[C@@H]2O [Taxol, taxol]
IC50 (K562): 1.35 nM | IC50 (MCF7): 2.35 nM | IC50 (K562/ADR; Homo sapiens, 96 h, K562/ADR (multidrug-resistant), 4 days, MTT): 700 nM | Resistance Factor (K562/ADR): 519.6 | IC50 (MCF7/ADR; Homo sapiens, NCI/ADR-RES, 96 h, MCF7/ADR (multidrug-resistant), 4 days, MTT): 1030 nM | Resistance Factor (MCF7/ADR): 438.38

SMILES: CCOCCn1c(Cl)c(/C=N/NC(=O)c2cc3cc(C)ccc3o2)c2cc(C)ccc21 [Example 13, (E)-N′-[(2-chloro-1-(2-ethoxyethyl)-5-methyl-1H-indol-3-yl]methylene}-5-methylbenzofuran-2-carbohydrazide]
IC50 (HeLa cells): 337 nM

SMILES: CCOC(=O)Cn1c(C)c(/C=N/NC(=O)c2cc3c(OC)cc(OC)cc3o2)c2ccccc21 [Example 20, (E)-ethyl-2-(3-((2-(4,6-dimethoxybenzofuran-2-carbonyl) hydrazinylidene)methyl)-2-methyl-1H-indol-1-yl)acetate]
IC50 (HeLa cells): 500 nM

SMILES: CCOCCn1c(Cl)c(/C=N/NC(=O)c2cc3cc(NC(C)=O)ccc3o2)c2ccccc21 [Example 19, (E)-N′-{2-[2-((2-chloro-1-(2-ethoxyethyl)-1H-indol-3-yl)methylene]hydrazine-1-carbonyl}benzofuran-5-yl)acetamide]
IC50 (HeLa cells): 4520 nM

SMILES: CCOC(=O)Cn1c(C)c(/C=N/NC(=O)c2cc3c(ccc4ccccc43)o2)c2ccccc21 [Comparative Example 1, (E)-ethyl 2-(2-methyl-3-((2-(naphtho[2,1-b]furan-2-carbonyl)hydrazono)methyl)-1H-indol-1-yl)acetate, reference compound]
IC50 (HeLa cells): 562 nM

SMILES: CCOCCn1c(C(F)(F)F)c(/C=N/NC(=O)c2cc3cc(C)ccc3o2)c2ccccc21 [Example 6, (E)-N′-{[1-(2-ethoxyethyl)-2-(trifluoromethyl)-1H-indol-3-yl]methylene}-5-methylbenzofuran-2-carbohydrazide]
IC50 (HeLa cells): 1220 nM

SMILES: CCOCCn1c(Cl)c(/C=N/NC(=O)c2cc3cc(C)ccc3o2)c2cc(OC(F)(F)F)ccc21 [Example 12, (E)-N′-[(2-chloro-1-(2-ethoxyethyl)-5-(trifluoromethoxy)-1H-indol-3-yl]methylene}-5-methylbenzofuran-2-carbohydrazide]
IC50 (HeLa cells): 619 nM

SMILES: COc1cc2c(c(OC)c1OC)-c1ccc(OC)c(=O)cc1[C@@H](NC(C)=O)CC2 [Colchicine, colchicine]
Resistance Factor (K562/ADR): 22.91 | Resistance Factor (MCF7/ADR): 34.15

SMILES: Cc1ccc2oc(C(=O)N/N=C/c3c(Cl)n(C)c4ccccc34)cc2c1 [Example 2, (E)-N′-[(2-chloro-1-methyl-1H-indol-3-yl)methylene]-5-methylbenzofuran-2-carbohydrazide]
IC50 (HeLa cells): 892 nM | Residue % (180 minutes elapsed), Mean (Stability test in plasma [1]; Human plasma): 90.43% | half-life at 5 mM (Stability test in plasma [1]; Human plasma): > 3 h | Residue % (180 minutes elapsed), Mean (Stability test in plasma [1]; Mouse plasma): 55.82% | half-life at 5 mM (Stability test in plasma [1]; Mouse plasma): > 3 h | half-life at 5 mM (Stability test in plasma [2]): > 3 h | Residue % (180 minutes elapsed), Mean (Stability test in plasma [2]): 75.82% | Residue (%) after culturing for 30 min ([3]; Human, +NADPH): 8.69 ± 0.44% | Residue (%) after culturing for 30 min ([3]; Human, −NADPH): 36.40 ± 1.90% | Residue (%) after culturing for 30 min ([3]; Mouse, +NADPH): 2.84 ± 0.34% | Residue (%) after culturing for 30 min ([3]; Mouse, −NADPH): 11.59 ± 1.06% | Residue (%) after culturing for 30 min ([3]; Rat, +NADPH): 2.99 ± 0.64% | Residue (%) after culturing for 30 min ([3]; Rat, −NADPH): 41.45 ± 0.93% | Residue (%) after culturing for 30 min [4]: 77.94 ± 7.04%

SMILES: O=C1CC2(CCCC2)CC(=O)N1CCCCN1CCN(c2ncccn2)CC1 [Buspirone, buspirone, reference compound]
Residue (%) after culturing for 30 min ([3]; Human, +NADPH): 2.21 ± 0.03% | Residue (%) after culturing for 30 min ([3]; Human, −NADPH): 91.06 ± 0.40% | Residue (%) after culturing for 30 min ([3]; Mouse, +NADPH): 0.32 ± 0.05% | Residue (%) after culturing for 30 min ([3]; Mouse, −NADPH): 94.74 ± 0.74% | Residue (%) after culturing for 30 min ([3]; Rat, +NADPH): 0.41 ± 0.02% | Residue (%) after culturing for 30 min ([3]; Rat, −NADPH): 93.08 ± 1.21%

SMILES: CCOCCn1c(Cl)c(/C=N/NC(=O)c2cc3cc(Cl)ccc3o2)c2ccccc21 [Example 16, (E)-5-chloro-N′-{[2-chloro-1-(2-ethoxyethyl)-1H-indol-3-yl]methylene}benzofuran-2-carbohydrazide]
IC50 (HeLa cells): 455 nM

SMILES: CCN(CC)CCOC(=O)c1ccc(N)cc1 [Procaine, procaine, reference compound]
Residue % (180 minutes elapsed), Mean (Stability test in plasma [1]; Human plasma): 0.45% | Residue % (180 minutes elapsed), Mean (Stability test in plasma [1]; Mouse plasma): 1.06% | Residue % (180 minutes elapsed), Mean (Stability test in plasma [2]): 1.89%

SMILES: Cc1ccc2oc(C(=O)N/N=C/c3c(Cl)[nH]c4ccccc34)cc2c1 [Example 1, (E)-N′-[(2-chloro-1H-indol-3-yl)methylene]-5-methylbenzofuran-2-carbohydrazide]
IC50 (HeLa cells): 3880 nM

SMILES: CCOCCn1c(Cl)c(/C=N/NC(=O)c2cc3c(OC)cc(OC)cc3o2)c2ccccc21 [Example 18, (E)-N′-[(2-chloro-1-(2-ethoxyethyl)-1H-indol-3-yl]methylene}-4,6-dimethoxybenzofuran-2-carbohydrazide]
IC50 (HeLa cells): 563 nM

The remaining molecules from weak to strong by IC50 (HeLa cells), led by results:

IC50 (HeLa cells): 263 nM
SMILES: CCOCCn1c(Br)c(/C=N/NC(=O)c2cc3cc(C)ccc3o2)c2ccccc21 [Example 5, (E)-N′-[(2-bromo-1-(2-ethoxyethyl)-1H-indol-3-yl]methylene}-5-methylbenzofuran-2-carbohydrazide]

IC50 (HeLa cells): 262 nM
SMILES: CCOCCn1c(Cl)c(/C=N/NC(=O)c2cc3cc(OC)ccc3o2)c2ccccc21 [Example 14, (E)-N′-[(2-chloro-1-(2-ethoxyethyl)-1H-indol-3-yl]methylene}-5-methoxybenzofuran-2-carbohydrazide]

IC50 (HeLa cells): 243 nM | Residue % (180 minutes elapsed), Mean (Stability test in plasma [1]; Human plasma): 56.52% | half-life at 5 mM (Stability test in plasma [1]; Human plasma): > 3 h | Residue % (180 minutes elapsed), Mean (Stability test in plasma [1]; Mouse plasma): 0.12% | half-life at 5 mM (Stability test in plasma [1]; Mouse plasma): 0.0933 h | half-life at 5 mM (Stability test in plasma [2]): 0.0767 h | Residue % (180 minutes elapsed), Mean (Stability test in plasma [2]): 0.21% | Residue (%) after culturing for 30 min ([3]; Human, +NADPH): 12.34 ± 0.69% | Residue (%) after culturing for 30 min ([3]; Human, −NADPH): 22.26 ± 0.72% | Residue (%) after culturing for 30 min ([3]; Mouse, +NADPH): 2.50 ± 0.11% | Residue (%) after culturing for 30 min ([3]; Mouse, −NADPH): 6.81 ± 0.17% | Residue (%) after culturing for 30 min ([3]; Rat, +NADPH): 1.39 ± 0.12% | Residue (%) after culturing for 30 min ([3]; Rat, −NADPH): 8.53 ± 0.46% | Residue (%) after culturing for 30 min [4]: 89.02 ± 4.39%
SMILES: CCOC(=O)Cn1c(Cl)c(/C=N/NC(=O)c2cc3cc(C)ccc3o2)c2ccccc21 [Example 3, ethyl (E)-2-{2-chloro-3-[(2-(5-methylbenzofuran-2-carbonyl)hydrazinylidene)methyl]-1H-indol-1-yl}acetate]

IC50 (HeLa cells): 243 nM
SMILES: CCOCCn1c(Cl)c(/C=N/NC(=O)c2cc3cc(C)ccc3o2)c2cc(Cl)ccc21 [Example 11, (E)-N′-[(2,5-dichloro-1-(2-ethoxyethyl)-1H-indol-3-yl]methylene}-5-methylbenzofuran-2-carbohydrazide]

IC50 (HeLa cells): 233 nM
SMILES: COCCn1c(Cl)c(/C=N/NC(=O)c2cc3cc(C)ccc3o2)c2ccccc21 [Example 7, (E)-N′-[(2-chloro-1-(2-methoxyethyl)-1H-indol-3-yl]methylene}-5-methylbenzofuran-2-carbohydrazide]

IC50 (HeLa cells): 232 nM
SMILES: CCOCCn1c(Cl)c(/C=N/NC(=O)c2cc3cc(C)ccc3o2)c2ccc(OC)cc21 [Example 9, (E)-N′-[(2-chloro-1-(2-ethoxyethyl)-6-methoxy-1H-indol-3-yl]methylene}-5-methylbenzofuran-2-carbohydrazide]

IC50 (HeLa cells): 221 nM
SMILES: CCOCCn1c(Cl)c(/C=N/NC(=O)c2cc3cc(C)ccc3o2)c2cc(F)ccc21 [Example 10, (E)-N′-[(2-chloro-1-(2-ethoxyethyl)-5-fluoro-1H-indol-3-yl]methylene}-5-methylbenzofuran-2-carbohydrazide]
